Values after ≈ are worked out from the molar mass of the structure shown. Values joined by “and” are separate entries in the source; they are usually repeats but may differ in a detail not shown here. Equal entries are not always repeated. Each block holds one compound with its values, some of them ahead of it.
Key:
Experiment in all cases: ≥ marks a high value that may be exact or a test limit, other limits are often not marked, values filed in µg/mL are converted to µM
Candida albicans = system: Candida albicans
[1] = system: Staphylococcus aureus AS1.72
Escherichia coli AS1.349 = system: Escherichia coli AS1.349
Lactococcus lactis = system: Lactococcus lactis
Bacillus cereus = system: Bacillus cereus
Pseudomonas aeruginosa = system: Pseudomonas aeruginosa
[2] = system: Escherichia coli ESBL 63103
[3] = system: Staphylococcus aureus C623
[4] = system: Pseudomonas aeruginosa 213
[5] = system: Pseudomonas aeruginosa H103
[6] = system: Staphylococcus aureus ATCC 25923
[7] = system: Pseudomonas aeruginosa LES400
[8] = system: Enterococcus faecium mic80
Candida albicans C627 = system: Candida albicans C627
Shigella dysenteriae = system: Shigella dysenteriae
[9] = system: Escherichia coli ATCC 25922
[10] = system: Staphylococcus aureus ATCC 2592
Bacillus pumilus = system: Bacillus pumilus
[11] = system: Candida albicans ATCC 2002
[12] = system: Acinetobacter calcoaceticus
Staphylococcus aureus = system: Staphylococcus aureus
[13] = system: Staphylococcus aureus USA 100
[14] = system: Salmonella enterica subsp. enterica serovar Enteritidis
[15] = system: Candida albicans ATCC 90028
[16] = system: Staphylococcus aureus USA 300
Listeria innocua = system: Listeria innocua
Micrococcus luteus = system: Micrococcus luteus
Escherichia coli = system: Escherichia coli
[17] = system: Pseudomonas aeruginosa ATCC 9027
Escherichia coli B = system: Escherichia coli B
[18] = system: Escherichia coli PCM 2057
[19] = system: Staphylococcus aureus PMC 1650
Candida krusei CCM 8271 = system: Candida krusei CCM 8271
[20] = system: Staphylococcus epidermidis PCM 2118
Bacillus subtilis 168 = system: Bacillus subtilis 168
[21] = system: Candida albicans F7-39/IDE99
[22] = system: Candida parapsilosis CCM 8260
[23] = system: Staphylococcus epidermidis PCM 521
[24] = system: Candida glabrata CCM 8270
[25] = system: Staphylococcus aureus PCM 2054
[26] = system: Pseudomonas aeruginosa CMCCB 10104
[27] = system: Staphylococcus aureus ATCC 29213
[28] = system: Lactococcus lactis AS1.1690
[29] = system: Enterococcus faecium CGMCC 1.2334
[30] = system: Enterococcus faecalis CGMCC 1.595
[31] = system: Pseudomonas aeruginosa CGMCC 1.860
Bacillus cereus AS1.126 = system: Bacillus cereus AS1.126

Structure (SMILES): CC[C@H](C)[C@H](NC(=O)CN)C(=O)N[C@@H](Cc1ccccc1)C(=O)N[C@@H](CO)C(=O)N[C@@H](CC(C)C)C(=O)N[C@H](C(=O)N[C@@H](CCCCN)C(=O)N[C@H](C(=O)N[C@@H](C)C(=O)N[C@@H](C)C(=O)N[C@@H](CCCCN)C(=O)N[C@@H](Cc1ccccc1)C(=O)N[C@H](C(=O)NCC(=O)N[C@@H](CCCCN)C(=O)N[C@@H](CC(N)=O)C(=O)N[C@@H](CC(C)C)C(=O)N[C@@H](CC(C)C)C(=O)N[C@@H](CCCCN)C(=O)N[C@@H](CCC(N)=O)C(=O)N[C@@H](C)C(=O)NCC(=O)N[C@@H](CCCCN)C(=O)N[C@@H](C)C(=O)NCC(=O)N[C@H](C(=O)N[C@@H](CCC(=O)O)C(=O)N[C@@H](Cc1cnc[nH]1)C(=O)N[C@@H](CC(C)C)C(=O)N[C@@H](C)C(=O)N[C@H]1CSSC[C@@H](C(=O)O)NC(=O)[C@H](CCC(N)=O)NC(=O)[C@H](CC(N)=O)NC(=O)[C@H](CC(N)=O)NC(=O)[C@H](C)NC(=O)[C@H](CCCCN)NC1=O)C(C)C)C(C)C)[C@@H](C)O)[C@@H](C)CC [GIFSLIKTAAKFVGKNLLKQAGKAGVEHLACKANNQC]
MIC (Shigella dysenteriae): 1.94 µM (≈ 7.5 µg/mL) | MIC [9]: 3.23 µM (≈ 12.5 µg/mL) | MIC [10]: 0.323 µM (≈ 1.25 µg/mL) | MIC (Bacillus pumilus): 0.646 µM (≈ 2.5 µg/mL) | MIC [11]: 0.646 µM (≈ 2.5 µg/mL) | MIC (Bacillus cereus): 1.94 µM (≈ 7.5 µg/mL) | MIC (Pseudomonas aeruginosa): 12.9 µM (≈ 50 µg/mL) | MIC [12]: 3.23 µM (≈ 12.5 µg/mL)

Structure (SMILES): NCCCCC(N)C(=O)NC(Cc1ccc(O)cc1)C(=O)NC(CCCN=C(N)N)C(=O)O (stereo not given) [KYR]
MIC (Staphylococcus aureus): 1 µM (≈ 0.466 µg/mL) | MIC [13]: ≥ 100 µM | MIC [14]: 1 µM (≈ 0.466 µg/mL) | MIC [15]: ≥ 100 µM | MIC [16]: ≥ 100 µM | MIC (Listeria innocua): 1 µM (≈ 0.466 µg/mL) | MIC (Micrococcus luteus): 2 µM (≈ 0.931 µg/mL) | MIC (Escherichia coli): 1 µM (≈ 0.466 µg/mL) | MIC [17]: > 100 µM

Structure (SMILES): CC[C@H](C)[C@H](NC(=O)[C@H](CCCCN)NC(=O)[C@H](CCCCN)NC(=O)CNC(=O)[C@@H](NC(=O)CNC(=O)[C@H](CC(C)C)NC(=O)[C@@H](NC(=O)CNC(=O)[C@H](CO)NC(=O)[C@H](CC(C)C)NC(=O)[C@H](CC(C)C)NC(=O)CN)C(C)C)C(C)C)C(=O)N[C@H](C(=O)N[C@H]1CSSC[C@@H](C(=O)O)NC(=O)[C@H](CC(C)C)NC(=O)CNC(=O)[C@H](CO)NC(=O)[C@H](CC(C)C)NC(=O)CNC1=O)C(C)C [GLLSGVLGVGKKIVCGLSGLC]
MIC [26]: 5.27 µM (≈ 10.4 µg/mL) | MIC [14]: ≥ 64.9 µM | MIC [9]: 2.63 µM and 5.73 µM | MIC [6]: 5.27 µM (≈ 10.4 µg/mL) | MIC [11]: 2.63 µM (≈ 5.19 µg/mL) | MIC [27]: 11.5 µM (≈ 22.6 µg/mL)

The next lines start with the values.

MIC (Candida albicans): 6.25 µM (≈ 9.02 µg/mL) | MIC [1]: 3.13 µM (≈ 4.52 µg/mL) | MIC (Escherichia coli AS1.349): 12.5 µM (≈ 18 µg/mL) | MIC (Lactococcus lactis): 3.13 µM (≈ 4.52 µg/mL) | MIC (Bacillus cereus): 3.13 µM (≈ 4.52 µg/mL) | MIC (Pseudomonas aeruginosa): 12.5 µM (≈ 18 µg/mL)
Structure (SMILES): CC(C)C[C@H](NC(=O)[C@H](CC(C)C)NC(=O)CNC(=O)[C@H](Cc1ccccc1)NC(=O)[C@H](CCCN=C(N)N)NC(=O)[C@H](CC(C)C)NC(=O)[C@H](CCCCN)NC(=O)[C@H](CCCCN)NC(=O)[C@H](CC(C)C)NC(=O)[C@@H]1CCCN1C(=O)[C@H](CC(C)C)NC(=O)[C@@H](N)Cc1ccccc1)C(N)=O [FLPLKKLRFGLL]

MIC [2]: ≥ 46.7 µM | MIC [3]: ≥ 46.7 µM | MIC [4]: ≥ 93.3 µM | MIC [5]: ≥ 46.7 µM | MIC [6]: 93.3 µM (≈ 128 µg/mL) | MIC [7]: ≥ 93.3 µM | MIC [8]: 23.3 µM (≈ 32 µg/mL) | MIC (Candida albicans C627): 5.83 µM (≈ 8 µg/mL)
Structure (SMILES): CC[C@H](C)[C@H](NC(=O)[C@H](CCCCN)NC(=O)[C@H](Cc1c[nH]c2ccccc12)NC(=O)[C@@H](NC(=O)[C@@H](N)CCCN=C(N)N)[C@@H](C)CC)C(=O)N[C@@H](Cc1c[nH]c2ccccc12)C(=O)N[C@@H](Cc1c[nH]c2ccccc12)C(=O)N[C@@H](CCCCN)C(=O)N[C@@H](CCCN=C(N)N)C(=O)O [RIWKIWWKR]

MIC (Shigella dysenteriae): 3.01 µM (≈ 5 µg/mL) | MIC [9]: 1.51 µM (≈ 2.5 µg/mL) | MIC [10]: 1.51 µM (≈ 2.5 µg/mL) | MIC (Bacillus pumilus): 3.01 µM (≈ 5 µg/mL) | MIC [11]: 1.51 µM (≈ 2.5 µg/mL) | MIC (Bacillus cereus): 18.1 µM (≈ 30 µg/mL) | MIC (Pseudomonas aeruginosa): 3.01 µM (≈ 5 µg/mL) | MIC [12]: 18.1 µM (≈ 30 µg/mL)
Structure (SMILES): CC[C@H](C)[C@H](NC(=O)[C@@H]1CCCN1C(=O)[C@H](Cc1ccccc1)NC(=O)[C@@H](N)Cc1ccccc1)C(=O)N[C@H](C(=O)NCC(=O)N[C@@H](CCCCN)C(=O)N[C@@H](CC(C)C)C(=O)N[C@@H](CC(C)C)C(=O)N[C@@H](CO)C(=O)NCC(=O)N[C@@H](CC(C)C)C(=O)N[C@@H](CO)C(=O)NCC(=O)N[C@@H](CC(C)C)C(=O)N[C@@H](CC(C)C)C(N)=O)C(C)C [FFPIVGKLLSGLSGLL]

MIC (Escherichia coli B): 1.7 µM (≈ 2.93 µg/mL) | MIC (Staphylococcus aureus): 14.3 µM (≈ 24.6 µg/mL) | MIC [18]: 7.25 µM (≈ 12.5 µg/mL) | MIC [19]: 14.5 µM (≈ 25 µg/mL) | MIC (Candida krusei CCM 8271): 29 µM (≈ 50 µg/mL) | MIC [20]: 3.62 µM (≈ 6.25 µg/mL) | MIC (Pseudomonas aeruginosa): 15.8 µM (≈ 27.2 µg/mL) | MIC (Bacillus subtilis 168): 0.8 µM (≈ 1.38 µg/mL) | MIC [21]: 9.1 µM (≈ 15.7 µg/mL) | MIC [22]: 29 µM (≈ 50 µg/mL) | MIC [23]: 7.25 µM (≈ 12.5 µg/mL) | MIC [24]: 29 µM (≈ 50 µg/mL) | MIC [25]: 29 µM (≈ 50 µg/mL)
Structure (SMILES): CC[C@H](C)[C@H](NC(=O)[C@H](CCCCN)NC(=O)CNC(=O)[C@H](CC(C)C)NC(=O)[C@@H](NC(=O)[C@H](CCCCN)NC(=O)[C@H](CCCCN)NC(=O)[C@H](Cc1c[nH]c2ccccc12)NC(=O)[C@H](CC(N)=O)NC(=O)[C@@H](N)C(C)C)C(C)C)C(=O)N[C@H](C(=O)N[C@@H](CCCCN)C(=O)N[C@H](C(=O)N[C@@H](C)C(=O)N[C@@H](CCCCN)C(N)=O)C(C)C)[C@@H](C)CC [VNWKKVLGKIIKVAK]

MIC [28]: 6.25 µM (≈ 10.7 µg/mL) | MIC [29]: 6.25 µM (≈ 10.7 µg/mL) | MIC [1]: 6.25 µM (≈ 10.7 µg/mL) | MIC (Escherichia coli AS1.349): 3.13 µM (≈ 5.33 µg/mL) | MIC [30]: 6.25 µM (≈ 10.7 µg/mL) | MIC [31]: 1.56 µM (≈ 2.66 µg/mL) | MIC (Bacillus cereus AS1.126): 3.13 µM (≈ 5.33 µg/mL)
Structure (SMILES): CC(C)[C@H](N)C(=O)N[C@@H](Cc1c[nH]c2ccccc12)C(=O)N[C@@H](CCCN=C(N)N)C(=O)N[C@@H](CCCCN)C(=O)N[C@@H](Cc1c[nH]c2ccccc12)C(=O)N[C@@H](CCCN=C(N)N)C(=O)N[C@@H](CCCN=C(N)N)C(=O)N[C@@H](Cc1ccccc1)C(=O)N[C@@H](Cc1c[nH]c2ccccc12)C(=O)N[C@@H](CCCCN)C(=O)N[C@@H](CCCN=C(N)N)C(=O)O [VWRKWRRFWKR]

Reference: DBAASP
